Results: patent US4108986A, “N^2 -Arylsulfonyl-L-argininamides and the pharmaceutically acceptable salts thereof” (Mitsubishi Chemical Industries Limited, priority 1974, dated 1978)

Assays:
mice = assay: acute toxicity (LD50), intraperitoneal administration in mice; type: in vivo; conditions: mice (male, 20 g)
Excerpt: Representative LD50 values, for example, for N^2 -(6,7-dimethoxy-2-naphthylsulfonyl)-L-arginyl-N-butylalanine and N^2 -(4,6-dimethoxy-2-naphthylsulfonyl)-L-arginyl-N-cyclohexylmethylalanine are above 1,500 milligrams per kilogram each.

thrombin = target: T1, thrombin (Bos taurus, UniProt P00735); assay: fibrinogen coagulation time (thrombin added to bovine fibrinogen solution); type: biochemical; conditions: thrombin 5 units/ml, borate saline buffer pH 7.4, 25° C, normal coagulation time 50-55 seconds prolonged to 100-110 seconds
T1 construct: purchased Mochida Pharmaceutical Co., Ltd
Description: The measurement of the fibrinogen coagulation time was conducted as follows:
Immediately after mixing, the reaction mixture was transferred from the ice bath to a bath maintained at 25° C. Coagulation times were taken as the period between the time of transference to the 25° C bath and the time of the first appearance of fibrin threads.
The term "concentration required to prolong the coagulation time by a factor of two" is the concentration of an active ingredient required to prolong the normal coagulation time 50-55 seconds to 100-110 seconds.

SMILES	acute toxicity values (LD50) (mice)	Concentration required to prolong the coagulation time by a factor of two (thrombin) [µM]
CCCCN(C(=O)[C@H](CCCNC(=N)N)NS(=O)(=O)c1ccc2cc(OC)c(OC)cc2c1)[C@@H](C)C(=O)O [compound 2, N^2-(6,7-dimethoxy-2-naphthylsulfonyl)-L-arginyl-N-butylalanine]	above 1,500 milligrams per kilogram	
CCCCCN(C(=O)[C@H](CCCNC(=N)N)NS(=O)(=O)c1ccc2cc(OC)c(OC)cc2c1)[C@@H](C)C(=O)O [compound 4, N^2-(6,7-dimethoxy-2-naphthylsulfonyl)-L-arginyl-N-pentylalanine]		2.0
COc1cc2ccc(S(=O)(=O)N[C@@H](CCCNC(=N)N)C(=O)N(Cc3ccccc3)[C@@H](C)C(=O)O)cc2cc1OC [compound 6, N^2-(6,7-dimethoxy-2-naphthylsulfonyl)-L-arginyl-N-benzylalanine]		2.5
COc1cc2ccc(S(=O)(=O)N[C@@H](CCCNC(=N)N)C(=O)N(CCc3ccccc3)[C@@H](C)C(=O)O)cc2cc1OC [compound 8, N^2-(6,7-dimethoxy-2-naphthylsulfonyl)-L-arginyl-N-phenethylalanine]		1.5
COc1ccc2cc(S(=O)(=O)N[C@@H](CCCNC(=N)N)C(=O)N(CC3CCCCC3)[C@@H](C)C(=O)O)cc(OC)c2c1 [compound 12, N^2-(4,6-dimethoxy-2-naphthylsulfonyl)-L-arginyl-N-cyclohexylmethylalanine]	above 1,500 milligrams per kilogram	4.5
COCCN(C(=O)[C@H](CCCNC(=N)N)NS(=O)(=O)c1ccc2cc(OC)c(OC)cc2c1)[C@@H](C)C(=O)O [compound 15, N^2-(6,7-dimethoxy-2-naphthylsulfonyl)-L-arginyl-N-(2-methoxyethyl)alanine]		5
COc1cc2ccc(S(=O)(=O)N[C@@H](CCCNC(=N)N)C(=O)N(C)[C@@H](Cc3ccccc3)C(=O)O)cc2cc1OC [compound 18, N^2-(6,7-dimethoxy-2-naphthylsulfonyl)-L-arginyl-N-methylphenylalanine]		2
COc1ccc2ccc(S(=O)(=O)N[C@@H](CCCNC(=N)N)C(=O)N(C)[C@@H](Cc3ccccc3)C(=O)O)cc2c1 [compound 20, N^2-(7-methoxy-2-naphthylsulfonyl)-L-arginyl-N-methyl-phenylalanine]		2.5
CCC[C@H](NC(=O)[C@H](CCCNC(=N)N)NS(=O)(=O)c1ccc2cc(OC)c(OC)cc2c1)C(=O)O [compound 21, N^2-(6,7-dimethoxy-2-naphthylsulfonyl)-L-arginylnorvaline]		15
